Measured values reported in patent publication US20080262009A1, “CRYSTALLINE POLYMORPHS OF N-(3-(DIMETHYLAMINO)PROPYL)-4-(4-(3-FLUORO-4-METHOXYPHENYL) PYRIMIDIN-2-YLAMINO) BENZENESULFONAMIDE AS ACETATE SALTS” (Wyeth, priority 2007, published 2008).

Tests used:
Water solubility = assay: Water solubility
Description: HCl, phosphoric acid, tartaric acid, acetic acid, D-glucoronic acid and succinic acid were used to prepare pharmaceutically acceptable salts of compound 3.

[1] = Solubility in organic solvents / group 3 solvents; format: physicochemical

Compound | solubility (Water solubility; water) [µg/mL] | Solubility in water (Water solubility; by a thermogravimeteric method) | water solubility (in words) (Water solubility; free base form, general statement) | solubility in THF, DMSO and DMF ([1]; THF, DMSO and DMF) | solubility in group 3 solvents, including water ([1]; group 3 solvents, including water)
CC(=O)O.COc1ccc(-c2ccnc(Nc3ccc(S(=O)(=O)NCCCN(C)C)cc3)n2)cc1F [acetate salt of compound 3] | 3500 |  |  |  | 
COc1ccc(-c2ccnc(Nc3ccc(S(=O)(=O)NCCCN(C)C)cc3)n2)cc1F [compound 3] |  | not detectable | little to no | high | low
